Laboratory results: US9630894B2, “Energy efficient method and apparatus for the extraction of biomolecules from dilute aqueous solution” (DYNASEP INC., priority 2012, dated 2017)

Tests used:
[1] = CCC extraction with DME of clarified fermentation broth from Clostridium acetobutylicum, GC and DNS assay; type: physicochemical
Procedure: This example describes three different runs of the CCC with fermentation broth from Clostridium acetobutylicum. […] The fermentation was intentionally interrupted prior to completion.
The extraction column operated at room temperature (˜25° C.) throughout the column. Periodic extract and raffinate samples were taken and analyzed for the constituents in the extract and raffinate discharges.
This example describes three different runs. In all cases, the mass of solvent to the mass of feed ratio (S/F) was 0.9. In all example the fermentation broth was first centrifuged to removal all cellular matter. Thus, the feed solution was clarified. In the case of the first run, the following components were measured via gas chromatograph (GC) analysis using external standard calibration. The external standard was run prior to analyzing the samples to provide individual calibration between peak area and the respective constituent under measure. […] Acetate was the conjugate base of acetic acid. Butyrate was the conjugate base of butyric acid. All components were quantified in the extract and raffinate. Since the extract and raffinate are mostly water and DME dissolves in water to approximately 20 wt. %, the samples were allowed to degas over a 24 hour period.
During the run, samples were taken of the extract and raffinate. In the case of the extract, the bulk DME was removed by reduction of pressure and addition of heat to flash the DME from the water and other solution constituents.
Extract and raffinate samples were collected at periodic intervals during the CCC testing. […] Glucose was measured via a DNS (3,5-dinitrosalicylic acid) assay.
In cases where the extract formed a two phase solution, the extract samples were diluted with distilled water to create a single phase and homogenous sample prior to GC. The dilution factor was then used to correct the GC measurements for concentrations prior to dilution.

[2] = Distribution coefficients of ABE mixtures between DME and aqueous phase in agitated pressure vessel, HPLC; type: physicochemical
Procedure: The compositions of the aqueous mixtures were based on concentrations typically produced in a cellulosic fermentation.
Mixtures were charged to a pressure vessel and agitated to provide adequate contacting between the aqueous and solvent (DME) phases. Heat tape was used to control the temperature of the liquid that was measured by thermocouples. Pressure and temperature measurements were taken every five minutes. After temperature and pressure stabilization agitation was ceased and the liquid phases were allowed to fully settle.
A mass balance was also performed on each component of the ABE and BE mixtures to determine a degree of accuracy of the results.

[3] = Run 3, Extract Bot, time 31 min
[4] = Run 3, Extract Bot, time 37 min
[5] = Run 3, Extract Top, time 31 min
[6] = Run 3, Extract Top, time 37 min

concentration in sample [1, 3] | concentration in sample [1, 4] | concentration in sample [1, 5] | concentration in sample [1, 6] | concentration in sample ([1]; Run 3, Extract, time 22 min) | concentration in sample ([1]; Run 3, Extract, time 27 min) | concentration in sample ([1]; Run 3, Extract, time 43 min) | concentration in sample ([1]; Run 3, Extract, time 70 min) | concentration in sample ([1]; Run 3, Extract, time 74 min) | concentration in sample ([1]; Run 3, Extract, time 78 min) | concentration in sample ([1]; Run 3, Extract, time 82 min) | concentration in sample ([1]; Run 3, Feed, time 0 min) | concentration in sample ([1]; Run 3, Raffinate, time 22 min) | concentration in sample ([1]; Run 3, Raffinate, time 27 min) | concentration in sample ([1]; Run 3, Raffinate, time 31 min) | concentration in sample ([1]; Run 3, Raffinate, time 37 min) | concentration in sample ([1]; Run 3, Raffinate, time 43 min) | concentration in sample ([1]; Run 3, Raffinate, time 70 min) | concentration in sample ([1]; Run 3, Raffinate, time 74 min) | concentration in sample ([1]; Run 3, Raffinate, time 78 min) | Structure (SMILES) | other results
1.64 g/L | 1.88 g/L | 0.91 g/L | 1.02 g/L | 0.96 g/L | 1.00 g/L | 1.83 g/L | 1.62 g/L | 1.46 g/L | 1.60 g/L | 1.65 g/L | 0.33 g/L | 0.07 g/L | 0.00 g/L | 0.00 g/L | 0.00 g/L | 0.00 g/L | 0.00 g/L | 0.00 g/L | 0.06 g/L | CC(=O)C(C)O (centres unmarked) [Acetoin] | concentration in sample ([1]; Run 3, Raffinate, time 82 min): 0.00 g/L
2.29 g/L | 2.59 g/L | 1.98 g/L | 2.11 g/L | 1.13 g/L | 1.53 g/L | 2.11 g/L | 1.85 g/L | 1.71 g/L | 1.70 g/L | 1.92 g/L | 0.80 g/L | 0.34 g/L | 0.40 g/L | 0.42 g/L | 0.64 g/L | 0.89 g/L | 1.56 g/L | 0.71 g/L | 0.24 g/L | CCO [Ethanol, ethanol] | concentration in sample ([1]; Run 3, Raffinate, time 82 min): 1.14 g/L
– | – | – | – | – | – | – | – | – | – | – | – | – | – | – | – | – | – | – | – | O [Water, water] | DC ([2]; test ABE1, […] C., 104 psig): 0.15; DC ([2]; test ABE2, 38.3 ° C., 102 psig): 0.14; DC ([2]; test ABE3, 38.3 ° C., 103 psig): 0.13; DC ([2]; test ABE4, 38.0 ° C., 103 psig): 0.14; DC ([2]; test B1, […] C., 78 psig): 0.15; DC ([2]; test B2, 28.2 ° C., 83 psig): 0.11; DC ([2]; test B3, […] C., 86 psig): 0.11; DC ([2]; test BE1, 30.1 ° C., 85 psig): 0.13; DC ([2]; test BE2, 38.9 ° C., 107 psig): 0.13; DC ([2]; test BE3, 37.6 ° C., 103 psig): 0.12; DC ([2]; test BE3, 38.4 ° C., 106 psig): 0.12
